Assay results taken from US4514573A, “Isoprenylamine derivatives” (priority 1981, dated 1985).

System: Human interferon; normal diploid cells (fibroblast)
Assay: Human interferon-inducing activity (in vitro), 3H-uridine-uptake inhibition
Assay type: cell-based
Settings: 25 n molar suspension
Experimental: Interferon was induced according to the method of Edward A. Havell et al. by treating normal diploid cells (fibroblast) originated from human being with each test compound in the form of ethanol solution diluted with PBS (-) (25 n molar suspension). Using the radioisotope microassay method of H. Ishitsuka et al., interferon was measured in terms of 3H-uridine-uptakeinhibition rate.

Structure (SMILES)	Human interferon 3H uridine-uptake inhibition rate % [%]
COc1ccc(CNCC=C(C)CCC=C(C)CCC=C(C)CCC=C(C)CCC=C(C)CCC=C(C)CCC=C(C)CCC=C(C)CCC=C(C)CCC=C(C)C)cc1 [drawing 82]	61.4
CC(C)=CCCC(C)=CCCC(C)=CCCC(C)=CCCC(C)=CCCC(C)=CCCC(C)=CCCC(C)=CCCC(C)=CCCC(C)=CCNCCCCc1ccccc1 [drawing 79]	67.2
COc1ccc(CNCC=C(C)CCCC(C)CCCC(C)CCCC(C)C)cc1OC (stereo not shown) [drawing 87]	1.8
CC(C)=CCCC(C)=CCCC(C)=CCCC(C)=CCCC(C)=CCCC(C)=CCCC(C)=CCCC(C)=CCCC(C)=CCCC(C)=CCNCc1ccc(C)cc1 [drawing 76]	91.1
COc1ccc(CCNCC=C(C)CCC=C(C)CCC=C(C)CCC=C(C)CCC=C(C)CCC=C(C)CCC=C(C)CCC=C(C)CCC=C(C)CCC=C(C)C)cc1OC [drawing 80]	32.5
CC(C)=CCCC(C)=CCCC(C)=CCCC(C)=CCCC(C)=CCCC(C)=CCCC(C)=CCCC(C)=CCCC(C)=CCCC(C)=CCNCc1ccc(Cl)cc1 [drawing 77]	75.7
COc1ccc(CNCC=C(C)CCC=C(C)CCC=C(C)CCC=C(C)CCC=C(C)CCC=C(C)CCC=C(C)CCC=C(C)CCC=C(C)C)cc1OC [drawing 83]	86.9
CC(C)=CCCC(C)=CCCC(C)=CCCC(C)=CCCC(C)=CCCC(C)=CCCC(C)=CCCC(C)=CCCC(C)=CCCC(C)=CCNCC(O)c1ccccc1 (stereo not shown) [drawing 86]	37.6
COc1cc(CNCC=C(C)CCC=C(C)CCC=C(C)CCC=C(C)CCC=C(C)CCC=C(C)CCC=C(C)CCC=C(C)CCC=C(C)CCC=C(C)C)ccc1O [drawing 81]	41.9
CC(C)=CCCC(C)=CCCC(C)=CCCC(C)=CCCC(C)=CCCC(C)=CCCC(C)=CCCC(C)=CCCC(C)=CCCC(C)=CCNCc1cccc(CN)c1 [drawing 84]	20.2
COc1cc(CNCC=C(C)CCC=C(C)CCC=C(C)CCC=C(C)CCC=C(C)CCC=C(C)CCC=C(C)CCC=C(C)CCC=C(C)C)cc(OC)c1OC	21.5
COc1ccc(CNCC=C(C)CCC=C(C)CCC=C(C)CCC=C(C)CCC=C(C)CCC=C(C)CCC=C(C)CCC=C(C)CCC=C(C)CCC=C(C)C)cc1OC [drawing 78]	77.8
CC(C)=CCCC(C)=CCCC(C)=CCCC(C)=CCCC(C)=CCCC(C)=CCCC(C)=CCCC(C)=CCCC(C)=CCCC(C)=CCNCc1ccc([N+](=O)[O-])cc1 [drawing 74]	23.6
COc1cccc(CNCC=C(C)CCC=C(C)CCC=C(C)CCC=C(C)CCC=C(C)CCC=C(C)CCC=C(C)CCC=C(C)CCC=C(C)CCC=C(C)C)c1OC [drawing 85]	26.6
CC(C)=CCCC(C)=CCCC(C)=CCCC(C)=CCCC(C)=CCCC(C)=CCCC(C)=CCCC(C)=CCCC(C)=CCCC(C)=CCNc1ccc(C(=O)O)c(O)c1 [drawing 72]	39.8
CC(C)=CCCC(C)=CCCC(C)=CCCC(C)=CCCC(C)=CCCC(C)=CCCC(C)=CCCC(C)=CCCC(C)=CCCC(C)=CCNCc1cccc2ccccc12 [drawing 75]	13.7
CC(C)=CCCC(C)=CCCC(C)=CCCC(C)=CCCC(C)=CCCC(C)=CCCC(C)=CCCC(C)=CCCC(C)=CCCC(C)=CCNc1ccc(C(=O)O)cc1 [drawing 71]	12.7
CC(C)=CCCC(C)=CCCC(C)=CCCC(C)=CCCC(C)=CCCC(C)=CCCC(C)=CCCC(C)=CCCC(C)=CCCC(C)=CCNCCCc1ccccc1 [drawing 73]	17.7

System: vaccinia virus
Assay: animal or person
Assay type: in vivo, ICR female mice
Settings: Orthopoxvirus vaccinia, in Mus musculus, ip, 192 h, read-out: Prevention from vaccinia infection (Pock inhibition rate %)

Structure (SMILES)	inhibition in vivo at 50 mg/kg [%]
CC(C)=CCCC(C)=CCCC(C)=CCCC(C)=CCCC(C)=CCCC(C)=CCCC(C)=CCCC(C)=CCCC(C)=CCCC(C)=CCNCC(O)c1ccccc1 (stereo not shown) [drawing 43]	64.4
CC(C)=CCCC(C)=CCCC(C)=CCCC(C)=CCCC(C)=CCCC(C)=CCCC(C)=CCCC(C)=CCCC(C)=CCCC(C)=CCNc1ccc(C(=O)O)c(O)c1 [drawing 27]	42.9
CC(C)=CCCC(C)=CCCC(C)=CCCC(C)=CCCC(C)=CCCC(C)=CCCC(C)=CCCC(C)=CCCC(C)=CCCC(C)=CCNCCc1ccc(N)cc1 [drawing 35]	64.4
CC(C)=CCCC(C)=CCCC(C)=CCCC(C)=CCCC(C)=CCCC(C)=CCCC(C)=CCCC(C)=CCCC(C)=CCCC(C)=CCNCc1cccc2ccccc12 [drawing 30]	21.6
CC(C)=CCCC(C)=CCCC(C)=CCCC(C)=CCCC(C)=CCCC(C)=CCCC(C)=CCCC(C)=CCCC(C)=CCCC(C)=CCNCc1cccc(CN)c1 [drawing 41]	91.4
COc1ccc(CNCC=C(C)CCC=C(C)CCC=C(C)CCC=C(C)CCC=C(C)CCC=C(C)CCC=C(C)CCC=C(C)CCC=C(C)CCC=C(C)C)cc1 [drawing 39]	58.8
CC(C)=CCCC(C)=CCCC(C)=CCCC(C)=CCCC(C)=CCCC(C)=CCCC(C)=CCCC(C)=CCCC(C)=CCCC(C)=CCNc1ccc(C(=O)O)cc1 [drawing 26]	15
COc1cccc(CNCC=C(C)CCC=C(C)CCC=C(C)CCC=C(C)CCC=C(C)CCC=C(C)CCC=C(C)CCC=C(C)CCC=C(C)CCC=C(C)C)c1OC [drawing 42]	32.5
CC(C)=CCCC(C)=CCCC(C)=CCCC(C)=CCCC(C)=CCCC(C)=CCCC(C)=CCCC(C)=CCCC(C)=CCCC(C)=CCNCc1ccc(Cl)cc1 [drawing 32]	34
CC(C)=CCCC(C)=CCCC(C)=CCCC(C)=CCCC(C)=CCCC(C)=CCCC(C)=CCCC(C)=CCCC(C)=CCCC(C)=CCNCCCc1ccccc1 [drawing 28]	68.1
COc1cc(CNCC=C(C)CCC=C(C)CCC=C(C)CCC=C(C)CCC=C(C)CCC=C(C)CCC=C(C)CCC=C(C)CCC=C(C)CCC=C(C)C)ccc1O [drawing 38]	67.1
CC(C)=CCCC(C)=CCCC(C)=CCCC(C)=CCCC(C)=CCCC(C)=CCCC(C)=CCCC(C)=CCCC(C)=CCCC(C)=CCNCCCCc1ccccc1 [drawing 36]	40.3
COc1ccc(CNCC=C(C)CCC=C(C)CCC=C(C)CCC=C(C)CCC=C(C)CCC=C(C)CCC=C(C)CCC=C(C)CCC=C(C)CCC=C(C)C)cc1OC [drawing 33]	35.4
COc1ccc(CCNCC=C(C)CCC=C(C)CCC=C(C)CCC=C(C)CCC=C(C)CCC=C(C)CCC=C(C)CCC=C(C)CCC=C(C)CCC=C(C)C)cc1OC [drawing 37]	68.1
CC(C)=CCCC(C)=CCCC(C)=CCCC(C)=CCCC(C)=CCCC(C)=CCCC(C)=CCCC(C)=CCCC(C)=CCCC(C)=CCNCc1ccc(C)cc1 [drawing 31]	44.8
COc1ccc(CNC/C=C(\C)CCC=C(C)C)cc1OC	10
CC(C)=CCCC(C)=CCCC(C)=CCCC(C)=CCCC(C)=CCCC(C)=CCCC(C)=CCCC(C)=CCCC(C)=CCCC(C)=CCNCc1ccc([N+](=O)[O-])cc1 [drawing 29]	47.7
CC(C)=CCCC(C)=CCCC(C)=CCCC(C)=CCCC(C)=CCCC(C)=CCCC(C)=CCCC(C)=CCCC(C)=CCCC(C)=CCNC(c1ccccc1)c1ccccc1 [drawing 34]	14.8
COc1ccc(CNCC=C(C)CCC=C(C)CCC=C(C)CCC=C(C)CCC=C(C)CCC=C(C)CCC=C(C)CCC=C(C)CCC=C(C)C)cc1OC [drawing 40]	54.1
